In article PMC6600542 (Molecules, 2019):
Several values for one entry are separate records, joined by “and”; a condition that tells them apart may be missing. Equal values may be shown once.

Tests used:
[1] = tested on: human plasma deficient of FVII; assay: APTT clotting assay, FVII-deficient plasma; format: biochemical
Description: For the PT assay, thromboplastin-D was reconstituted according to the manufacturer’s directions and warmed to 37 °C. […] After incubation for 4 min at 37 °C, clotting was initiated by adding 100 μL of prewarmed 25 mM CaCl2 and the time to clotting was noted. […] To determine the in vitro effect on the APTT of deficient human plasmas, the APTT assay was repeated, using human plasmas deficient of factor VII (FVII), factor IX (FIX), FXI, or factor XII (FXII). […] The positive control used in APTT and PT assays was rivaroxaban, a clinically used FXa inhibitor. Under the conditions reported, rivaroxaban doubled the APTT and PT at concentrations of 0.123 ± 0.003 µM and 0.193 ± 0.043 µM, respectively.

normal human plasma = assay: TT clotting assay, normal human plasma; format: biochemical; conditions: for concentration to double the TT: normal human plasma (text)
human plasmin = human plasmin (Homo sapiens, UniProt P00747); assay: In vitro plasmin-mediated clot lysis (fibrinolysis) assay; format: biochemical; conditions: rate of clot lysis over 5–100 min, pH 7.4, 25 °C
Sequence of human plasmin (P00747 581-810 limits assumed): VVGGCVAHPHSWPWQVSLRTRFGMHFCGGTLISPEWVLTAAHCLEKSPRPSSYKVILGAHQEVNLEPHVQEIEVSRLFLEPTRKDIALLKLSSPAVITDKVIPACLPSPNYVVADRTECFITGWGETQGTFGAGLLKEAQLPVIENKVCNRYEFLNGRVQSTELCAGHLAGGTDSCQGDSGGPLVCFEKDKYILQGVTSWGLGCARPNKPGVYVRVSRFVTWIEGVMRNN
Sequence of human plasmin (P00747 97-580 partner limits assumed): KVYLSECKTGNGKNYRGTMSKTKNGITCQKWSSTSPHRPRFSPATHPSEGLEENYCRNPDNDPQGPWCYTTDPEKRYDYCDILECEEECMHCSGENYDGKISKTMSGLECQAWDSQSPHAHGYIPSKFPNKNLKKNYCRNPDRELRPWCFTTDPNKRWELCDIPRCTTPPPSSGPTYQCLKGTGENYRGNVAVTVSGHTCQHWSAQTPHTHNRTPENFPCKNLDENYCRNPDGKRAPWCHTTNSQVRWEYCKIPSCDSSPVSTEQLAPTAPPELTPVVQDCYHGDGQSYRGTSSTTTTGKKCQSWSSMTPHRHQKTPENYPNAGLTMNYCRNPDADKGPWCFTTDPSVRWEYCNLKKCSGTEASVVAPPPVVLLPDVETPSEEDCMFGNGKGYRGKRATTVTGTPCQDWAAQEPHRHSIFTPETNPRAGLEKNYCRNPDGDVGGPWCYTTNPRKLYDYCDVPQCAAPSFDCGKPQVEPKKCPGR
Description: The method followed here was similar to that reported earlier. This in vitro experiment was conducted in 96-well platform in pH 7.4 buffer at 25 °C. The clot was generated by the addition of 80 µL of a solution of human thrombin (2.5 µg/mL) in 20 mM TrisHCl buffer containing 10 mM CaCl2 to 60 µL of a solution of fibrinogen (10 mg/mL) and FXIIIa (2 µg/mL) in 20 mM TrisHCl buffer containing 10 mM CaCl2. The resulting clot was stabilized for 15 min at 25 °C. The absorbance was then measured at 405 nm and was ~0.98 across all wells. […] Finally, 5 µL of human plasmin (stock of 1.6 µM) in 20 mM TrisHCl buffer of pH 7.4 containing 2.5 mM CaCl2 and 100 mM NaCl was added to each well and the A405 of each well was recorded over more than 340 min at various time intervals. […] (1) Y=Y0+YM−Y0/1+10^(log[I]0−logIC50)(HS)

human α-thrombin = target: T1, human α-thrombin (Homo sapiens, UniProt P00734); assay: Thrombin chromogenic substrate hydrolysis assay; format: biochemical
T1 construct: purchased Haematologic Technologies, Inc
Description: Direct inhibition of human FXa and α-thrombin of the common coagulation pathway and human plasmin of the fibrinolysis pathway were measured using the corresponding chromogenic substrate hydrolysis assays at 37 °C and pH 7.4, as reported earlier using the 96-microplate platform. […] After 10 min incubation, 5 µL Spectrozyme FXa (5 mM stock conc.) was rapidly added and the residual activity of FXa was measured from the initial rate of increase in absorbance at 405 nm. […] The concentration vs effect curve was constructed using logistic Equation (1) from which the potency (IC50) and efficacy (ΔY) of inhibition were also obtained.
For thrombin and plasmin, the assays were performed using substrates appropriate for each enzyme (Spectrozyme TH for thrombin and Spectrozyme PL for plasmin) under conditions closest to the physiological condition. The KM of the substrate for its enzyme was used to identify the concentration of the substrate to be used for inhibition studies. […] After 10 min incubation, 5 µL Spectrozyme TH (1.0 mM stock conc.) was rapidly added and the residual activity of thrombin was measured from the initial rate of increase in absorbance at 405 nm. […] After 10 min incubation, 5 µL Spectrozyme PL (1.0 mM stock conc.) was rapidly added and the residual activity of plasmin was measured from the initial rate of increase in absorbance at 405 nm. […]

FXIa = target: T2, FXIa (Homo sapiens, UniProt P03951); assay: FXIa chromogenic substrate hydrolysis assay; format: biochemical
T2 construct: purchased Haematologic Technologies, Inc; host or cells: plasma
T2 sequence (P03951 388-625 limits assumed): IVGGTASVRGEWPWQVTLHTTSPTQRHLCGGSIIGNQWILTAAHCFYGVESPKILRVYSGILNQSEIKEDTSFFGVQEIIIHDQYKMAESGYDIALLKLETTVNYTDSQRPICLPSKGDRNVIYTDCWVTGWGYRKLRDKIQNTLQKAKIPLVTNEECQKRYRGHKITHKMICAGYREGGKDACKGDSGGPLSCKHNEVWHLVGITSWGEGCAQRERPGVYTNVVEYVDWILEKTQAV
T2 sequence (P03951 19-387 partner limits assumed): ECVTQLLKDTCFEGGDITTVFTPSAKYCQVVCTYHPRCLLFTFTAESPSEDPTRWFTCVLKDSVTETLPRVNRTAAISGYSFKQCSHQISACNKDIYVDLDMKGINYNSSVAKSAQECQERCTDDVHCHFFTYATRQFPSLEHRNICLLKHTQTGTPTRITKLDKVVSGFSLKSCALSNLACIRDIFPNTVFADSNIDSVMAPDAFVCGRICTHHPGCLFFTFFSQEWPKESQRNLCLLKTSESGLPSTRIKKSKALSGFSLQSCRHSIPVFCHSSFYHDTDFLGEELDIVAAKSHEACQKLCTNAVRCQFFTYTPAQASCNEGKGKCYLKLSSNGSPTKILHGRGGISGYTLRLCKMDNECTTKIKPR
Description: Direct inhibition of the human coagulation transglutaminase FXIIIa was also studied using a fluorescence-based transglutamination assay as reported in the literature.
After 10 min incubation, 5 µL FXIa substrate (6.9 mM stock concentration) was rapidly added and the residual FXIa activity was measured from the initial rate of increase in absorbance at 405 nm. Assays were performed in similar fashion with trypsin and chymotrypsin. Stock concentrations used were 18.9 µg/mL (trypsin) and 22.7 mM (S-2222) for bovine trypsin assay (final volume was 200 µL) and 2 µg/mL (chymotrypsin) and 16.2 mM (N-Succinyl-Ala-Ala-Pro-Phe-p-nitroanilide) for bovine chymotrypsin assay (final volume was 200 µL). The buffer used for FXIa, trypsin, chymotrypsin assays was 50 mM Tris-HCl buffer, pH 7.4, containing 150 mM NaCl, 2.5 mM CaCl2, 0.1% PEG8000, and 0.02% Tween80. Neutrophil elastase inhibition assay was performed in a 96-well plate with a final volume of 100 µl with 0.125 M 4-(2-hydroxyethyl)-1-piperazineethanesulfonic acid (HEPES) buffer, pH 7.4 containing 0.125% Triton-X 100, as reported earlier. […] After incubation, 3 µL neutrophil elastase substrate (S-1384; 25 mM stock conc.) was rapidly added and the residual enzyme activity measured from the initial rate of increase in the absorbance at 405 nm.

clotting times = conditions: cited from earlier work
[2] = parameters: method as in PMID 3491164, PMID 3680992, PMID 1984463; conditions: patients; read-out: means of plasma CMAX; cited from earlier work

N=C(N)c1ccc(OCCCCCOc2ccc(C(=N)N)cc2)cc1 [pentamidine isethionate, 4,4′-(pentane-1,5-diylbis(oxy))-dibenzimidamide]
APTTEC2×, concentration to double clotting time [1]: 26.71 ± 0.50 µm
TTEC2×, concentration to double clotting time (normal human plasma; TT assay, normal human plasma): 158.17 ± 30.87 µm
concentration to double the TT (normal human plasma): 158.17 µM and 158.17 ± 30.87 µM
concentration to double the TT (normal human plasma; listed as pentamidine): > 150 µM
HS (Hill slope) of clot lysis inhibition (human plasmin): 1.2 ± 0.7
efficacy (ΔY) of clot lysis inhibition (human plasmin): ~ 58%
IC50 (human plasmin; read-out: IC50 of fibrinolysis (clot lysis) inhibition): ~3.6 µM and 3.6 µM
IC50 (human α-thrombin; Thrombin, pH 7.4, 37 °C): > 100 µM
inhibition at 100 µM (human α-thrombin; thrombin, at 100 µM (highest concentration tested)): < 40%
inhibition at 100 µM (FXIa; at 100 µM (highest concentration tested)): < 40%
IC50 (FXIa; pH 7.4): > 100 µM
concentration that prolongs clotting times (clotting times): greater than 8.4 µM
Cmax [2]: ≤ 1000 nM
